Source: ChEMBL document CHEMBL4483862, “Open-source discovery of chemical leads for next-generation chemoprotective antimalarials” (2018)

Test system: Plasmodium berghei
Assay: Luciferase/luciferin-expressing antifolate-resistant parasites were used to infect a culture of HepG2 cells that were pre-incubated with compounds. Infected hepatocytes emit light due to the luciferase reaction. Assay results are presented as the percent inhibition of light emission compared to control. […]
Format: functional
Settings: sporozoite; for IC90: read-out: LUCIFERASE INFECTION ASSAY - IC90

| Structure (SMILES) | IC90 | other results |
| --- | --- | --- |
| Cc1cccc(-c2nc3c(NCc4ccccc4)nccc3[nH]2)c1 | 9.18 µM | IC50 (PBLUC_HILL_SLOPE 2.29, PBLUC_R_SQUARED 0.394, read-out: LUCIFERASE INFECTION ASSAY - IC50): 3.51 µM |
| CC(C)(C)c1ccc(C(=O)NC(=S)Nc2nc3c(s2)CCCC3)cc1 | 8.77 µM | IC50 (PBLUC_HILL_SLOPE 2.3, PBLUC_R_SQUARED 0.829, read-out: LUCIFERASE INFECTION ASSAY - IC50): 3.37 µM |
| Clc1ccc(-c2cnc3cnc(-c4ccncc4)cn23)cc1 | 4.84 µM | IC50 (PBLUC_HILL_SLOPE 2.25, PBLUC_R_SQUARED 0.741, read-out: LUCIFERASE INFECTION ASSAY - IC50): 1.82 µM |
| CS(=O)(=O)NCCc1ccc(C(=O)Nc2ncccc2O)cc1 | > 10 µM | IC50 (PBLUC_HILL_SLOPE 2.26, PBLUC_R_SQUARED 0.152, read-out: LUCIFERASE INFECTION ASSAY - IC50): 6.59 µM |
| O=C(Nc1ccccn1)c1ccc(Cl)c(S(=O)(=O)N(Cc2ccccc2)c2ccccc2)c1 | > 10 µM | IC50 (PBLUC_HILL_SLOPE 2.32, PBLUC_R_SQUARED 0.355, read-out: LUCIFERASE INFECTION ASSAY - IC50): 5.62 µM |
| O=C(CCn1c(-c2ccc(F)cc2)n[nH]c1=S)Nc1nc2c(s1)CCCC2 | > 10 µM | IC50 (PBLUC_HILL_SLOPE 2.35, PBLUC_R_SQUARED 0.213, read-out: LUCIFERASE INFECTION ASSAY - IC50): 4.33 µM |
| Cc1cc(C(=O)CN2C(=O)NC3(CCCc4sccc43)C2=O)c(C)n1Cc1ccc2c(c1)OCO2 (configuration not stated) | > 10 µM | IC50 (PBLUC_HILL_SLOPE 2.26, PBLUC_R_SQUARED 0.443, read-out: LUCIFERASE INFECTION ASSAY - IC50): 8.17 µM |
| O=C(Nc1ncccc1O)c1ccc(Cn2cccn2)cc1 | 3.1 µM | IC50 (PBLUC_HILL_SLOPE 2.35, PBLUC_R_SQUARED 0.554, read-out: LUCIFERASE INFECTION ASSAY - IC50): 1.22 µM |
| COc1ccc(C2=NOC(C(N)=O)C2)cc1OC (configuration not stated) | 9.25 µM | IC50 (PBLUC_HILL_SLOPE 2.3, PBLUC_R_SQUARED 0.443, read-out: LUCIFERASE INFECTION ASSAY - IC50): 3.55 µM |
| OC(c1ccc(F)c(Cl)c1)c1nnc(Nc2cccc(OC(F)(F)F)c2)s1 (configuration not stated) | > 10 µM | IC50 (PBLUC_HILL_SLOPE 2.34, PBLUC_R_SQUARED 0.225, read-out: LUCIFERASE INFECTION ASSAY - IC50): 9.05 µM |
| CC(=O)c1ccc(C#CCOC(=O)c2cccs2)s1 | > 11.4 µM | IC50 (PBLUC_HILL_SLOPE 2.26, PBLUC_R_SQUARED 0.405, read-out: LUCIFERASE INFECTION ASSAY - IC50): 5.72 µM |
| Cc1ccc(NNC(=O)c2cc3ccccc3o2)cc1Cl | > 10 µM | IC50 (PBLUC_HILL_SLOPE 2.35, PBLUC_R_SQUARED 0.383, read-out: LUCIFERASE INFECTION ASSAY - IC50): 6.24 µM |
| COc1ccccc1-n1c(C)c(C)c2c1ncn1nc(-c3ccncc3)nc21 | > 8.91 µM | IC50 (PBLUC_HILL_SLOPE 2.29, PBLUC_R_SQUARED 0.762, read-out: LUCIFERASE INFECTION ASSAY - IC50): > 8.91 µM |
| CN1c2ccccc2C(C)(C)C12C=Cc1c(ccc3oc4c(c13)CCCC4)O2 (configuration not stated) | > 10 µM | IC50 (PBLUC_HILL_SLOPE 2.26, PBLUC_R_SQUARED 0.401, read-out: LUCIFERASE INFECTION ASSAY - IC50): 8.28 µM |
| Cc1cc2ccccn2c1C(=O)c1cccc2nc3ccccc3nc12 | > 10 µM | IC50 (PBLUC_HILL_SLOPE 2.29, PBLUC_R_SQUARED 0.419, read-out: LUCIFERASE INFECTION ASSAY - IC50): 7.29 µM |
| CCOC(=O)c1sc2ncn(-n3c(C)ccc3C)c(=O)c2c1C | 7.62 µM | IC50 (PBLUC_HILL_SLOPE 2.28, PBLUC_R_SQUARED 0.71, read-out: LUCIFERASE INFECTION ASSAY - IC50): 2.9 µM |
| Cc1ccccc1-c1cnc2cnc(-c3ccc(N4CCN(C)CC4)nc3)cn12 | > 8.58 µM | IC50 (PBLUC_HILL_SLOPE 2.3, PBLUC_R_SQUARED 0.345, read-out: LUCIFERASE INFECTION ASSAY - IC50): > 8.58 µM |
| COc1cccc(Nc2nccc3nc(-c4cccc(C(F)(F)F)c4)[nH]c23)c1 | > 10 µM | IC50 (PBLUC_HILL_SLOPE 2.33, PBLUC_R_SQUARED 0.497, read-out: LUCIFERASE INFECTION ASSAY - IC50): 4.16 µM |
| COc1ccc(-c2nc3c(c(SCCN4CCCC4)n2)COC(C)(C)C3)cc1 | > 8.26 µM | IC50 (PBLUC_HILL_SLOPE 2.26, PBLUC_R_SQUARED 0.135, read-out: LUCIFERASE INFECTION ASSAY - IC50): 5.35 µM |
| Cc1cc(C)c(NC(=NCc2ccc(Cl)cc2)Nc2c(C)cc(C)cc2C)c(C)c1 | > 10 µM | IC50 (PBLUC_HILL_SLOPE 2.28, PBLUC_R_SQUARED 0.76, read-out: LUCIFERASE INFECTION ASSAY - IC50): 5.92 µM |
| C=CCOC(=O)C1=C(C)N(c2ccc3c(c2)OCCO3)C(=S)NC1c1ccc(F)cc1F (configuration not stated) | > 10 µM | IC50 (PBLUC_HILL_SLOPE 2.28, PBLUC_R_SQUARED 0.442, read-out: LUCIFERASE INFECTION ASSAY - IC50): 5.73 µM |

| Structure (SMILES) | IC90 | other results |
| --- | --- | --- |
| CCc1nc2ccccc2c(C(=O)OCC(=O)Nc2ccc(C#N)cc2)c1C | > 10 µM | IC50 (PBLUC_HILL_SLOPE 2.25, PBLUC_R_SQUARED 0.588, read-out: LUCIFERASE INFECTION ASSAY - IC50): 4.96 µM |
| CCCCN1C(=O)/C(=C\c2ccc(O)c(OCC)c2)NC1=S | > 10 µM | IC50 (PBLUC_HILL_SLOPE 2.35, PBLUC_R_SQUARED 0.305, read-out: LUCIFERASE INFECTION ASSAY - IC50): 6.33 µM |
| O=C(Nc1cccc(NC(=O)c2ccccc2Nc2ccccc2)c1)c1ccco1 | > 10 µM | IC50 (PBLUC_HILL_SLOPE 2.3, PBLUC_R_SQUARED 0.121, read-out: LUCIFERASE INFECTION ASSAY - IC50): 5.43 µM |
| OC(c1cccc(C(F)(F)F)c1)c1nnc(Nc2ccccc2)s1 (configuration not stated) | > 10 µM | IC50 (PBLUC_HILL_SLOPE 2.28, PBLUC_R_SQUARED 0.325, read-out: LUCIFERASE INFECTION ASSAY - IC50): 7.1 µM |
| CCN(CC)S(=O)(=O)N1CCN(C(=O)c2[nH]nc3ccccc23)CC1 | 3.63 µM | IC50 (PBLUC_HILL_SLOPE 2.28, PBLUC_R_SQUARED 0.575, read-out: LUCIFERASE INFECTION ASSAY - IC50): 1.39 µM |
| C/C(=N\NC(=O)c1sc2ccccc2c1Cl)c1ccc(C(C)(C)C)cc1 | > 10 µM | IC50 (PBLUC_HILL_SLOPE 2.25, PBLUC_R_SQUARED 0.703, read-out: LUCIFERASE INFECTION ASSAY - IC50): 4.74 µM |
| Clc1nc(NCc2ccc3c(c2)OCO3)c2[nH]cnc2n1 | > 10.9 µM | IC50 (PBLUC_HILL_SLOPE 2.33, PBLUC_R_SQUARED 0.359, read-out: LUCIFERASE INFECTION ASSAY - IC50): 9.8 µM |
| Cc1ccc(Nc2ccnc(Nc3ccc(C)cc3)n2)cc1 | > 10 µM | IC50 (PBLUC_HILL_SLOPE 2.32, 3.33, PBLUC_R_SQUARED 0.458, 0.517, read-out: LUCIFERASE INFECTION ASSAY - IC50): 4.86 µM |
| O=C(Nc1ccc([N+](=O)[O-])cc1)Nc1cccnc1Cl | 2.05 µM | IC50 (PBLUC_HILL_SLOPE 2.35, PBLUC_R_SQUARED 0.752, read-out: LUCIFERASE INFECTION ASSAY - IC50): 0.807 µM |
| CN(C)c1ccc(CNCC2(c3ccnc(-c4ccc(Cl)cc4)c3)CC2)cc1 | > 10 µM | IC50 (PBLUC_HILL_SLOPE 2.32, PBLUC_R_SQUARED 0.214, read-out: LUCIFERASE INFECTION ASSAY - IC50): 6.36 µM |
| CCNC(=O)c1cc(Cl)c(OCc2ccccc2)c(OC)c1 | > 10.3 µM | IC50 (PBLUC_HILL_SLOPE 2.26, PBLUC_R_SQUARED 0.647, read-out: LUCIFERASE INFECTION ASSAY - IC50): 5.81 µM |
| FC(F)(F)Oc1cccc(-c2cnc3sc(NCCN4CCOCC4)nn23)c1 | > 7.98 µM | IC50 (PBLUC_HILL_SLOPE 2.27, PBLUC_R_SQUARED 0.551, read-out: LUCIFERASE INFECTION ASSAY - IC50): 5.39 µM |
| CC1(c2ccccc2)NC(=O)N(NC(=O)c2ccc(-c3ccccc3)cc2)C1=O (configuration not stated) | > 10 µM | IC50 (PBLUC_HILL_SLOPE 2.29, PBLUC_R_SQUARED 0.368, read-out: LUCIFERASE INFECTION ASSAY - IC50): 6.98 µM |
| O=C(NCc1ccccn1)c1nn(CCc2ccccc2)c2c1CN(Cc1cccc3c1OCO3)CC2 | > 6.66 µM | IC50 (PBLUC_HILL_SLOPE 2.34, PBLUC_R_SQUARED 0.543, read-out: LUCIFERASE INFECTION ASSAY - IC50): 5.68 µM |
| Cc1cc(C(=O)COC(=O)c2ccc3[nH]c4c(c3c2)CCCC4)c(C)n1Cc1ccccc1Cl | 4.61 µM | IC50 (PBLUC_HILL_SLOPE 2.26, PBLUC_R_SQUARED 0.534, read-out: LUCIFERASE INFECTION ASSAY - IC50): 1.74 µM |
| CC(C)c1nc2cc(NC(=O)CSc3nnnn3C3CC3)ccc2o1 | > 10 µM | IC50 (PBLUC_HILL_SLOPE 2.34, PBLUC_R_SQUARED 0.391, read-out: LUCIFERASE INFECTION ASSAY - IC50): 3.99 µM |
| O=C(CN1CCN(Cc2cc(=O)oc3cc4c(cc23)CCC4)CC1)Nc1ccc(Cl)c(C(F)(F)F)c1 | > 10 µM | IC50 (PBLUC_HILL_SLOPE 2.35, PBLUC_R_SQUARED 0.537, read-out: LUCIFERASE INFECTION ASSAY - IC50): 5.82 µM |
| CC1CCN(C(CNC(=O)N2CCc3sccc3C2)c2cccs2)CC1 (configuration not stated) | 9.12 µM | IC50 (PBLUC_HILL_SLOPE 2.26, PBLUC_R_SQUARED 0.56, read-out: LUCIFERASE INFECTION ASSAY - IC50): 3.45 µM |
| Cc1ccc(Oc2ccc(NC(=O)c3cc(C)on3)cc2)cc1 | 4.67 µM | IC50 (PBLUC_HILL_SLOPE 2.32, PBLUC_R_SQUARED 0.861, read-out: LUCIFERASE INFECTION ASSAY - IC50): 1.81 µM |
| Cc1cc(-n2c(C)cc(/C=C3\S/C(=N\C4CCCC4)NC3=O)c2C)no1 | > 10 µM | IC50 (PBLUC_HILL_SLOPE 2.3, PBLUC_R_SQUARED 0.376, read-out: LUCIFERASE INFECTION ASSAY - IC50): 5.21 µM |
